Target: T1, Ba/F3 cell EGFR Exon20 ins NPH (Homo sapiens, UniProt P00533, INS773NPH)
T1 construct: expressed in transfected cells; host or cells: Ba/F3
Test: Ba/F3 cell proliferation suppression, EGFR Exon20 ins NPH
Type: cell-based
Conditions: GI50 class; Ba/F3 cell line with NPH inserted at Exon20 of EGFR; 72 hours
In short: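 Cells (3000–5000/well) plated 24 h before compound, 12-point 3-fold dilutions at 0.3 nM to 50 um final; Ba/F3 lines grown with 5 ng/ml IL-3. Viability by CellTiter-Glo luminescence after 72 h, growth ratio vs control, GI50 from curves; triplicate.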

Compound	Ba/F3 (NPH) Activity
C=CC(=O)Nc1cc(Nc2cc(N3OCC[C@@H]3Cc3cccc(F)c3)ncn2)c(OC)cc1N(C)CCN(C)C [compound 992, N-(2-((2-(dimethylamino)ethyl) (methyl)amino)-5-((6-((S)-3-(3-fluorobenzyl)isoxazolidine-2-yl)pyrimidine-4-yl)amino)-4-methoxyphenyl) acrylamide]	A (GI50 < 50 nM)
C=CC(=O)Nc1cc(Nc2cc(N3OCC[C@@H]3c3ccc(F)c(Cl)c3)ncn2)c(OC)cc1N1CCN(C(C)C)CC1 [compound 724, N-(5-((6-((R)-3-(3-chloro-4-fluorophenyl)isoxazolidine-2-yl)pyrimidine-4-yl)amino)-2-(4-isopropylpiperazine-1-yl)-4-methoxyphenyl) acrylamide]	A (GI50 < 50 nM)
N-(5-((6-((R)-3-(4- chloro-3-fluorophenyl) isoxazolidine-2-yl) pyrimidine-4-yl)amino)- 4-methoxy-2-((R)-3- morpholinopyrolidine- 1-yl)phenyl)acrylamide [compound 419]	A (GI50 < 50 nM)
C=CC(=O)Nc1cc(Nc2cc(N3OCC[C@@H]3c3ccc(F)c(F)c3F)ncn2)c(OC)cc1N1CCC(N2CCN(C)CC2)CC1 [compound 620, N-(4-methoxy-2-(4-(4-methylpiperazine-1-yl)piperidine-1-yl)-5-((6-((R)-3-(2,3,4-trifluorophenyl)isoxazolidine-2-yl)pyrimidine-4-yl)amino)phenyl)acrylamide]	A (GI50 < 50 nM)
C=CC(=O)Nc1cc(Nc2cc(N3OCC[C@@H]3c3ccc(F)cc3F)ncn2)c(OC)cc1N(C)CCOC [compound 347, N-(5-((6-((R)-3-(2,4-difluorophenyl)isoxazolidine-2-yl)pyrimidine-4-yl)amino)-4-methoxy-2-((2-methoxyethyl)(methyl)amino)phenyl) acrylamide]	A (GI50 < 50 nM)
C=CC(=O)Nc1cc(Nc2cc(N3OCC[C@@H]3c3cc(F)cc(Cl)c3)ncn2)c(OC)cc1N1CCC(N2C[C@H]3CCN(C)[C@H]3C2)CC1 [compound 539, N-(5-((6-((R)-3-(3-chloro-5-fluorophenyl)isoxazolidine-2-yl)pyrimidine-4-yl)amino)-4-methoxy-2-(4-((3aR,6aR)-1-methylhexahydropyrrolo [3,4-b]pyrrole-5(1H)-yl)piperidine-1-yl)phenyl)acrylamide]	A (GI50 < 50 nM)
C=CC(=O)Nc1cc(Nc2cc(N3OCC[C@@H]3c3cc(F)cc(F)c3)ncn2)c(OC)cc1N1CCN(C)[C@H](C)C1 [compound 917, N-(5-((6-((R)-3-(3,5-difluorophenyl)isoxazolidine-2-yl)pyrimidine-4-yl)amino)-2-((R)-3,4-dimethylpiperazine-1-yl)-4-methoxyphenyl) acrylamide]	A (GI50 < 50 nM)
C=CC(=O)Nc1cc(Nc2cc(N3OCC[C@@H]3c3cccc(Cl)c3F)ncn2)c(OC)cc1N1CCC(N(C)C)CC1 [compound 790, N-(5-((6-((R)-3-(3-chloro-2-fluorophenyl)isoxazolidine-2-yl)pyrimidine-4-yl)amino)-2-(4-(dimethylamino)piperidine-1-yl)-4-methoxyphenyl) acrylamide]	A (GI50 < 50 nM)
C=CC(=O)Nc1cc(Nc2cc(N3OCC[C@@H]3c3cc(F)ccc3F)ncn2)c(OC)cc1N1CCC(N2C[C@@H](C)N(C3CC3)C[C@H]2C)CC1 [Example 172, N-(2-(4-((2R,5R)-4-cyclopropyl-2,5-dimethylpiperazine-1-yl)piperidine-1-yl)-5-((6-((R)-3-(2,5-difluorophenyl)isoxazolidine-2-yl)pyrimidine-4-yl)amino)-4-methoxypheny) acrylamide]	A (GI50 < 50 nM)
C=CC(=O)Nc1cc(Nc2cc(N3OCC[C@@H]3Cc3cccc(Cl)c3Cl)ncn2)c(OC)cc1N1CCC(N2C[C@@H]3C[C@H]2CO3)CC1 [compound 1012, N-(2-(4-((1S,4S)-2-oxa-5-azabicyclo [2.2.1]heptane-5-yl)piperidine-1-yl)-5-((6-((S)-3-(2,3-dichlorobenzyl)isoxazolidine-2-yl)pyrimidine-4-yl)amino)-4-methoxyphenyl) acrylamide]	A (GI50 < 50 nM)
C=CC(=O)Nc1cc(Nc2cc(N3OCC[C@@H]3c3cccc(OC)c3)ncn2)c(OC)cc1N1CCC(N2CCN(C(C)=O)CC2)CC1 [compound 779, N-(2-(4-(4-acetylpiperazine-1-yl)piperidine-1-yl)-4-methoxy-5-((6-((R)-3-(3-methoxyphenyl)isoxazolidine-2-yl)pyrimidine-4-yl)amino)phenyl)acrylamide]	A (GI50 < 50 nM)
C=CC(=O)Nc1cc(Nc2cc(N3OCC[C@@H]3c3cc(F)cc(F)c3)ncn2)c(OC)cc1N1CCC(N2C[C@H]3CCN(C)[C@H]3C2)CC1 [compound 445, N-(5-((6-((R)-3-(3,5-difluorophenyl)isoxazolidine-2-yl)pyrimidine-4-yl)amino)-4-methoxy-2-(4-((3aR,6aR)-1-methylhexahydropyrrolo [3,4-b]pyrrole-5(1H)-yl)piperidine-1-yl)phenyl)acrylamide]	A (GI50 < 50 nM)
C=CC(=O)Nc1cc(Nc2cc(N3OCC[C@@H]3c3c(F)ccc(F)c3F)ncn2)c(OC)cc1N(C)CCN(C)C [compound 628, N-(2-((2-(dimethylamino)ethyl) (methyl)amino)-4-methoxy-5-((6-((R)-3-(2,3,6-trifluorophenyl)isoxazolidine-2-yl)pyrimidine-4-yl)amino)phenyl)acrylamide]	A (GI50 < 50 nM)
C=CC(=O)Nc1cc(Nc2cc(N3OCC[C@@H]3c3cccc(C#N)c3)ncn2)c(OC)cc1N1CCC(N2C[C@H]3C[C@@H]2CO3)CC1 [compound 389, N-(2-(4-((1R,4R)-2-oxa-5-azabicyclo[2.2.1]heptane-5-yl)piperidine-1-yl)-5-((6-((R)-3-(3-cyanophenyl)isoxazolidine-2-yl)pyrimidine-4-yl)amino)-4-methoxyphenyl) acrylamide]	A (GI50 < 50 nM)
C=CC(=O)Nc1cc(Nc2cc(N3OCC[C@@H]3c3cccc(C#N)c3)ncn2)c(OC)cc1N1CCN(CC)CC1 [compound 396, N-(5-((6-((R)-3-(3-cyanophenyl)isoxazolidine-2-yl)pyrimidine-4-yl)amino)-2-(4-ethylpiperazine-1-yl)-4-methoxyphenyl) acrylamide]	B (50 nM ≤ GI50 < 500 nM)
C=CC(=O)Nc1cc(Nc2cc(N3OCC[C@@H]3Cc3cc(F)cc(F)c3)ncn2)c(OC)cc1N1CCN(C2CC2)CC1 [compound 1032, N-(2-(4-cyclopropylpiperazine-1-yl)-5-((6-(S)-(3-(3,5-difluorobenzyl)isoxazolidine-2-yl)pyrimidine-4-yl)amino)-4-methoxyphenyl) acrylamide]	B (50 nM ≤ GI50 < 500 nM)
C=CC(=O)Nc1cc(Nc2cc(N3OCC[C@@H]3c3ccc(F)c(Cl)c3)ncn2)c(OC)cc1N1CCC(N2CCO[C@H](C)C2)CC1 [compound 874, N-(5-((6-((R)-3-(3-chloro-4-fluorophenyl)isoxazolidine-2-yl)pyrimidine-4-yl)amino)-4-methoxy-2-(4-((R)-2-methylmorpholino)piperidine-1-yl)phenyl) acrylamide]	A (GI50 < 50 nM)
C=CC(=O)Nc1cc(Nc2cc(N3OCC[C@@H]3c3ccc(F)c(F)c3F)ncn2)c(OC)cc1N1CCC(N(C)C)CC1 [compound 573, N-(2-(4-(dimethylamino)piperidine-1-yl)-4-methoxy-5-((6-((R)-3-(2,3,4-trifluorophenyl)isoxazolidine-2-yl)pyrimidine-4-yl)amino)phenyl)acrylamide]	A (GI50 < 50 nM)
C=CC(=O)Nc1cc(Nc2cc(N3OCC[C@@H]3c3ccc(C)nc3)ncn2)c(OC)cc1N1CCC(N2CCN(C(C)=O)CC2)CC1 [Example 232, N-(2-(4-(4-acetylpiperazine-1-yl)piperidine-1-yl)-4-methoxy-5-((6-((R)-3-(6-methylpyridine-3-yl)isoxazolidine-2-yl)pyrimidine-4-yl)amino)phenyl) acrylamide]	B (50 nM ≤ GI50 < 500 nM)
C=CC(=O)Nc1cc(Nc2cc(N3OCC[C@@H]3c3ccc(F)c(F)c3F)ncn2)c(OC)cc1N1CCC(N2CCOCC2)CC1 [compound 621, N-(4-methoxy-2-(4-morpholinopiperidine-1-yl)-5-((6-((R)-3-(2,3,4-trifluorophenyl)isoxazolidine-2-yl)pyrimidine-4-yl)amino)phenyl)acrylamide]	A (GI50 < 50 nM)
C=CC(=O)Nc1cc(Nc2cc(N3OCC[C@@H]3c3cccc(F)c3Cl)ncn2)c(OC)cc1N1CCC(N2CCN(C(C)=O)CC2)CC1 [compound 601, N-(2-(4-(4-acetylpiperazine-1-yl)piperidine-1-yl)-5-((6-((R)-3-(2-chloro-3-fluorophenyl)isoxazolidine-2-yl)pyrimidine-4-yl)amino)-4-methoxyphenyl) acrylamide]	A (GI50 < 50 nM)
C=CC(=O)Nc1cc(Nc2cc(N3OCC[C@@H]3c3cc(F)cc(F)c3)ncn2)c(OC)cc1N1CCC(N2CCN(C3COC3)CC2)CC1 [Example 79, N-(5-((6-((R)-3-(3,5-difluorophenyl)isoxazolidine-2-yl)pyrimidine-4-yl)amino)-4-methoxy-2-(4-(4-(oxetane-3-yl)piperazine-1-yl)piperidine-1-yl)phenyl)acrylamide]	A (GI50 < 50 nM)
C=CC(=O)Nc1cc(Nc2cc(N3OCC[C@@H]3c3ccc(F)c(Cl)c3)ncn2)c(OC)cc1N1C[C@H]2CCN(C)[C@H]2C1 [compound 317, N-(5-((6-((R)-3-(3-chloro-4-fluorophenyl)isoxazolidine-2-yl)pyrimidine-4-yl)amino)-4-methoxy-2-((3aR, 6aR)-1-methylhexahydropyrrolo [3,4-b]pyrrole-5(1H)-yl)phenyl)acrylamide]	A (GI50 < 50 nM)

Reference: patent US12157730B2, “Heteroaryl derivative, method for producing same, and pharmaceutical composition comprising same as effective component” (VORONOI INC., priority 2019, dated 2024)
